Converted amounts (≈) assume the structure as drawn.
How the values were obtained:
[1] = tested on: Escherichia coli; assay: Antibacterial activity against Escherichia coli DH52 after 24 hrs by two fold serial dilution method; assay type: functional; settings: DH52, 24 h
[2] = tested on: Aspergillus flavus; assay: Antifungal activity against Aspergillus flavus after 24 hrs by two fold serial dilution method; assay type: functional
[3] = tested on: Candida albicans; assay: Antifungal activity against Candida albicans ATCC 76615 after 24 hrs by two fold serial dilution method; assay type: functional; settings: ATCC 76615, 24 h
[4] = tested on: Staphylococcus aureus; assay: Antibacterial activity against methicillin-resistant Staphylococcus aureus N315 after 24 hrs by two fold serial dilution method; assay type: functional; settings: N315, 24 h
[5] = tested on: Bacillus spizizenii; assay: Antibacterial activity against Bacillus subtilis ATCC 6633 after 24 hrs by two fold serial dilution method; assay type: functional; settings: ATCC 6633, 24 h
[6] = tested on: Staphylococcus aureus; assay: Antibacterial activity against Staphylococcus aureus ATCC 25923 after 24 hrs by two fold serial dilution method; assay type: functional; settings: ATCC 25923, 24 h
[7] = Antifungal activity against Candida utilis after 24 hrs by two fold serial dilution method; assay type: functional; settings: Cyberlindnera jadinii
[8] = tested on: Shigella dysenteriae; assay: Antibacterial activity against Shigella dysenteriae after 24 hrs by two fold serial dilution method; assay type: functional
[9] = tested on: Salmonella typhi; assay: Antibacterial activity against Bacillus typhi after 24 hrs by two fold serial dilution method; assay type: functional, Salmonella enterica subsp. enterica serovar Typhi; settings: Salmonella enterica
[10] = tested on: Proteus vulgaris; assay: Antibacterial activity against Bacillus proteus ATCC 13315 after 24 hrs by two fold serial dilution method; assay type: functional; settings: ATCC 13315, 24 h
[11] = tested on: Pseudomonas aeruginosa; assay: Antibacterial activity against Pseudomonas aeruginosa ATCC 27853 after 24 hrs by two fold serial dilution method; assay type: functional; settings: ATCC 27853, 24 h
[12] = tested on: Escherichia coli; assay: Antibacterial activity against Escherichia coli JM109 after 24 hrs by two fold serial dilution method; assay type: functional; settings: JM109, 24 h
[13] = Antifungal activity against Candida mycoderma after 24 hrs by two fold serial dilution method; assay type: functional; settings: Pichia norvegensis
[14] = tested on: Saccharomyces cerevisiae; assay: Antifungal activity against Beer yeast after 24 hrs by two fold serial dilution method; assay type: functional
[15] = tested on: Micrococcus luteus; assay: Antibacterial activity against Micrococcus luteus ATCC 4698 after 24 hrs by two fold serial dilution method; assay type: functional; settings: NCTC 2665, 24 h
[16] = tested on: Shigella dysenteriae; assay: Potency index, ratio of chloromycin MIC to compound MIC for Shigella dysenteriae; assay type: functional
[17] = tested on: Shigella dysenteriae; assay: Potency index, ratio of norfloxacin MIC to compound MIC for Shigella dysenteriae; assay type: functional

Compound	MIC [1] [µg/mL]	MIC80 [2] [µg/mL]	MIC80 [3] [µg/mL]	MIC [4] [µg/mL]	MIC [5] [µg/mL]	MIC [6] [µg/mL]	MIC80 [7] [µg/mL]	MIC [8] [µg/mL]	MIC [9] [µg/mL]	MIC [10] [µg/mL]	MIC [11] [µg/mL]	MIC [12] [µg/mL]	MIC80 [13] [µg/mL]	MIC80 [14] [µg/mL]	MIC [15] [µg/mL]	Ratio [16]	Ratio [17]
Nc1ncc(-c2cn(Cc3ccc(F)cc3)c3c(F)cc(F)cc3c2=O)s1	32 (≈ 82.6 µM)	32 (≈ 82.6 µM)	32 (≈ 82.6 µM)	16 (≈ 41.3 µM)	128 (≈ 330 µM)	32 (≈ 82.6 µM)	64 (≈ 165 µM)	4 (≈ 10.3 µM)	16 (≈ 41.3 µM)	64 (≈ 165 µM)	64 (≈ 165 µM)	16 (≈ 41.3 µM)	16 (≈ 41.3 µM)	32 (≈ 82.6 µM)	16 (≈ 41.3 µM)	–	–
Nc1ncc(-c2cn(Cc3ccccc3F)c3c(F)cc(F)cc3c2=O)s1	64 (≈ 165 µM)	32 (≈ 82.6 µM)	64 (≈ 165 µM)	64 (≈ 165 µM)	64 (≈ 165 µM)	32 (≈ 82.6 µM)	128 (≈ 330 µM)	32 (≈ 82.6 µM)	8 (≈ 20.7 µM)	128 (≈ 330 µM)	128 (≈ 330 µM)	64 (≈ 165 µM)	64 (≈ 165 µM)	64 (≈ 165 µM)	64 (≈ 165 µM)	–	–
CCCCCn1cc(-c2cnc(N)s2)c(=O)c2cc(F)cc(F)c21	32 (≈ 91.6 µM)	16 (≈ 45.8 µM)	64 (≈ 183 µM)	32 (≈ 91.6 µM)	64 (≈ 183 µM)	256 (≈ 733 µM)	64 (≈ 183 µM)	16 (≈ 45.8 µM)	16 (≈ 45.8 µM)	64 (≈ 183 µM)	16 (≈ 45.8 µM)	64 (≈ 183 µM)	32 (≈ 91.6 µM)	128 (≈ 366 µM)	128 (≈ 366 µM)	–	–
CCCCCCCn1cc(-c2cnc(N)s2)c(=O)c2cc(F)cc(F)c21	32 (≈ 84.8 µM)	64 (≈ 170 µM)	32 (≈ 84.8 µM)	128 (≈ 339 µM)	64 (≈ 170 µM)	256 (≈ 678 µM)	64 (≈ 170 µM)	32 (≈ 84.8 µM)	64 (≈ 170 µM)	32 (≈ 84.8 µM)	32 (≈ 84.8 µM)	128 (≈ 339 µM)	256 (≈ 678 µM)	16 (≈ 42.4 µM)	256 (≈ 678 µM)	–	–
CCCCCCCCCCCCn1cc(-c2cnc(N)s2)c(=O)c2cc(F)cc(F)c21	256 (≈ 572 µM)	256 (≈ 572 µM)	128 (≈ 286 µM)	128 (≈ 286 µM)	64 (≈ 143 µM)	512 (≈ 1140 µM)	64 (≈ 143 µM)	128 (≈ 286 µM)	64 (≈ 143 µM)	256 (≈ 572 µM)	32 (≈ 71.5 µM)	128 (≈ 286 µM)	32 (≈ 71.5 µM)	128 (≈ 286 µM)	128 (≈ 286 µM)	–	–
Nc1ncc(-c2cn(Cc3ccc(Cl)cc3)c3c(F)cc(F)cc3c2=O)s1	64 (≈ 158 µM)	64 (≈ 158 µM)	512 (≈ 1270 µM)	64 (≈ 158 µM)	256 (≈ 634 µM)	128 (≈ 317 µM)	256 (≈ 634 µM)	16 (≈ 39.6 µM)	32 (≈ 79.2 µM)	32 (≈ 79.2 µM)	128 (≈ 317 µM)	128 (≈ 317 µM)	256 (≈ 634 µM)	128 (≈ 317 µM)	64 (≈ 158 µM)	–	–
Nc1ncc(-c2cn(Cc3ccc([N+](=O)[O-])cc3)c3c(F)cc(F)cc3c2=O)s1	32 (≈ 77.2 µM)	64 (≈ 154 µM)	32 (≈ 77.2 µM)	128 (≈ 309 µM)	128 (≈ 309 µM)	256 (≈ 618 µM)	256 (≈ 618 µM)	256 (≈ 618 µM)	64 (≈ 154 µM)	128 (≈ 309 µM)	64 (≈ 154 µM)	128 (≈ 309 µM)	128 (≈ 309 µM)	64 (≈ 154 µM)	128 (≈ 309 µM)	–	–
CCCn1cc(-c2cnc(N)s2)c(=O)c2cc(F)cc(F)c21	64 (≈ 199 µM)	32 (≈ 99.6 µM)	32 (≈ 99.6 µM)	32 (≈ 99.6 µM)	32 (≈ 99.6 µM)	16 (≈ 49.8 µM)	64 (≈ 199 µM)	4 (≈ 12.4 µM)	16 (≈ 49.8 µM)	64 (≈ 199 µM)	16 (≈ 49.8 µM)	64 (≈ 199 µM)	32 (≈ 99.6 µM)	16 (≈ 49.8 µM)	16 (≈ 49.8 µM)	4	4
Nc1ncc(-c2cn(Cc3ccccc3Cl)c3c(F)cc(F)cc3c2=O)s1	128 (≈ 317 µM)	64 (≈ 158 µM)	128 (≈ 317 µM)	64 (≈ 158 µM)	256 (≈ 634 µM)	128 (≈ 317 µM)	64 (≈ 158 µM)	64 (≈ 158 µM)	128 (≈ 317 µM)	256 (≈ 634 µM)	32 (≈ 79.2 µM)	128 (≈ 317 µM)	64 (≈ 158 µM)	128 (≈ 317 µM)	64 (≈ 158 µM)	–	–
